# According to patent US11117892B2, “Pyrrolo-pyridine derivative compound, method for preparing same, and pharmaceutical composition containing same as active ingredient for prevention or treatment of protein kinase-related diseases” (DAEGU-GYEONGBUK MEDICAL INNOVATION FOUNDATION, priority 2017, dated 2021):
# Columns and labels:
# Test in all cases: scanMAX Kinase assay panel
# Format in all cases: binding
# Settings in all cases: read-out: % control
# [1] = target: PFCDPK1(P. falciparum) (Plasmodium falciparum (isolate 3D7), UniProt P62344)
# Description: (§1) Particularly, the compounds of Examples 18 and 57 were selected among all of those compounds of the present invention. DiscoverX Co. was asked to measure the enzyme (kinase) selectivity, and the experiment was performed using scanMAX™ Kinase assay panel.
# (§2) At this time, the concentration of the drug treated to each enzyme was 1 uM in DMSO and the control percentage (% control) was determined by the following Equation 1. (Example Compound−Positive Control)/(Negative Control−Positive Control)×100 [Equation 1]
# (§3) Herein, the positive control indicates the compound showing the % control of 0%, and the negative control indicates DMSO showing the % control of 100%. The enzyme selectivity in the present invention is defined as follows: When the % control for each enzyme is less than 35% (<35%), it is judged that the compound has the activity to the corresponding enzyme.
# [2] = target: PRP4 (Homo sapiens (Human), UniProt Q13523)
# Description: as §1, §2, §3
# [3] = target: PKNB(M. tuberculosis) (Mycobacterium tuberculosis (strain ATCC 25618 / H37Rv), UniProt P9WI81)
# Description: as §1, §2, §3
# [4] = target: PFPK5(P. falciparum) (Plasmodium falciparum (isolate 3D7), UniProt P61075)
# Description: as §1, §2, §3
# [5] = target: CDC2L5 (Homo sapiens (Human), UniProt Q14004)
# Description: as §1, §2, §3
# [6] = target: CDKL5 (Homo sapiens (Human), UniProt O76039)
# Chain of CDKL5 (O76039 whole entry): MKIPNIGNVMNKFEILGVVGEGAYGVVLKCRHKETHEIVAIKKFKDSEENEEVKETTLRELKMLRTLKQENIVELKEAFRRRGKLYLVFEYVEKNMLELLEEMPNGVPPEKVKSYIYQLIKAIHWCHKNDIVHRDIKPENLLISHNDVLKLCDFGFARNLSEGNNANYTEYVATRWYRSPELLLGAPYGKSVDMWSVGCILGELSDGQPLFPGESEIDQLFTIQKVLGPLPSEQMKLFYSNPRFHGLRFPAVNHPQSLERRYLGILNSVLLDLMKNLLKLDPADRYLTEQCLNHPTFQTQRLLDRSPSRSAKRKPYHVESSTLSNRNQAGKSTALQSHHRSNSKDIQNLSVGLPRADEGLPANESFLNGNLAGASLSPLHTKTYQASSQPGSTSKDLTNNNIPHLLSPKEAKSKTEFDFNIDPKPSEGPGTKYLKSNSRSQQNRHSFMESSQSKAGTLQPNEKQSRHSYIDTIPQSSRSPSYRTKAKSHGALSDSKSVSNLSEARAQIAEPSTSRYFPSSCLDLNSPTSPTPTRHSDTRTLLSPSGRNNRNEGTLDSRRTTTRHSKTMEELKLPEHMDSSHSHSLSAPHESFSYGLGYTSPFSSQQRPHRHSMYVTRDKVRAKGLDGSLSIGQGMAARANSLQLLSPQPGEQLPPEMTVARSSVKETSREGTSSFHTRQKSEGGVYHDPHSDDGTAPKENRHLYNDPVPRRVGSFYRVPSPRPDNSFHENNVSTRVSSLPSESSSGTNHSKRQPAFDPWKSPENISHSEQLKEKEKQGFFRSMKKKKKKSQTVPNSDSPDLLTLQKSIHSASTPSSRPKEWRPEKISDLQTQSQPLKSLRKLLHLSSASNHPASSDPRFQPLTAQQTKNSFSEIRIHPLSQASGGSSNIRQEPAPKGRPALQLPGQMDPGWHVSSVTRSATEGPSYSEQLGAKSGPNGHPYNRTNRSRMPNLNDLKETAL
# Description: (§4) DiscoverX Co. was asked to measure the enzyme (kinase) selectivity, and the experiment was performed using scanMAX™ Kinase assay panel.
# (§5) (Example Compound−Positive Control)/(Negative Control−Positive Control)×100 [Equation 1]
# (§6) Herein, the positive control indicates the compound showing the % control of 0%, and the negative control indicates DMSO showing the % control of 100%.
# [7] = target: PRKG2 (Homo sapiens (Human), UniProt Q13237)
# Description: as §4, §5, §6
# [8] = target: PHKG2 (Homo sapiens (Human), UniProt P15735)
# Description: as §4, §5, §6
# [9] = target: MARK1 (Homo sapiens (Human), UniProt Q9P0L2)
# Chain of MARK1 (Q9P0L2 whole entry): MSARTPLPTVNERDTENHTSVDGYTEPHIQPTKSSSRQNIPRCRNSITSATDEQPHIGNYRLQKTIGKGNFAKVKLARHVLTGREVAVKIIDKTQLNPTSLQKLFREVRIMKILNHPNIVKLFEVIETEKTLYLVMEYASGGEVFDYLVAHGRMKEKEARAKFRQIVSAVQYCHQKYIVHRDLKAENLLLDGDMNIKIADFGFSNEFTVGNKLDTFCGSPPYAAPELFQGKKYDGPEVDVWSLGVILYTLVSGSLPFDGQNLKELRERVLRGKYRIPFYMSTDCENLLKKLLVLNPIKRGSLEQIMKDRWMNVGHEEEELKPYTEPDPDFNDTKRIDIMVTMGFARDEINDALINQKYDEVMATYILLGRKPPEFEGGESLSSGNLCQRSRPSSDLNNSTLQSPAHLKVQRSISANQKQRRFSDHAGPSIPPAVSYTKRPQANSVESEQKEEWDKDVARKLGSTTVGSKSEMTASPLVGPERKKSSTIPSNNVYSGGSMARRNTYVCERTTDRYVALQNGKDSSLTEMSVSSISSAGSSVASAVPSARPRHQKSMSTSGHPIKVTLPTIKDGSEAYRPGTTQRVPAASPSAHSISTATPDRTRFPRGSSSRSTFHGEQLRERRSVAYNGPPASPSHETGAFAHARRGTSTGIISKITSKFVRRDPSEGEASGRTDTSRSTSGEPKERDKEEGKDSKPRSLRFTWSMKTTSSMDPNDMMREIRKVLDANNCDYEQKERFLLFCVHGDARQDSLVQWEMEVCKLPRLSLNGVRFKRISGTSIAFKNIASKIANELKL
# Description: as §4, §5, §6
# [10] = target: RIPK4 (Homo sapiens (Human), UniProt P57078)
# Description: as §4, §5, §6
# [11] = target: ADCK3 (Homo sapiens (Human), UniProt Q8NI60)
# Description: as §4, §5, §6
# [12] = target: PIM3 (Homo sapiens (Human), UniProt Q86V86)
# Description: as §4, §5, §6
# [13] = target: CAMK1G (Homo sapiens (Human), UniProt Q96NX5)
# Chain of CAMK1G (Q96NX5 whole entry): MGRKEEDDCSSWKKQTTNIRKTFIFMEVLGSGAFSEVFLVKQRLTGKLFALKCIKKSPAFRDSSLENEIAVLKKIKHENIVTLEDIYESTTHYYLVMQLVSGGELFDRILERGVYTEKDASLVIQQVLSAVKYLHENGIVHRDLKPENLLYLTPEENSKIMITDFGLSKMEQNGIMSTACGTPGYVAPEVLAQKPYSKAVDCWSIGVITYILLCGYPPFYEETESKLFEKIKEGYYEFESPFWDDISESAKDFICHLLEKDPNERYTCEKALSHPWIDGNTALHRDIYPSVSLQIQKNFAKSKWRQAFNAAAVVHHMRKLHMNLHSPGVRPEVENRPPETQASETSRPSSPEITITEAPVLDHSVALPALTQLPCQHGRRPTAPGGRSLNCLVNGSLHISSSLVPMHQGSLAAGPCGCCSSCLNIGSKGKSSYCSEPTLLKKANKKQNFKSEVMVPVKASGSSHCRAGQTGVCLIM
# Description: as §4, §5, §6
# [14] = target: PIK3CA(E545K) (Homo sapiens (Human), UniProt P42336, E545K)
# Description: as §4, §5, §6
# [15] = target: VRK2 (Homo sapiens (Human), UniProt Q86Y07)
# Chain of VRK2 (Q86Y07 whole entry): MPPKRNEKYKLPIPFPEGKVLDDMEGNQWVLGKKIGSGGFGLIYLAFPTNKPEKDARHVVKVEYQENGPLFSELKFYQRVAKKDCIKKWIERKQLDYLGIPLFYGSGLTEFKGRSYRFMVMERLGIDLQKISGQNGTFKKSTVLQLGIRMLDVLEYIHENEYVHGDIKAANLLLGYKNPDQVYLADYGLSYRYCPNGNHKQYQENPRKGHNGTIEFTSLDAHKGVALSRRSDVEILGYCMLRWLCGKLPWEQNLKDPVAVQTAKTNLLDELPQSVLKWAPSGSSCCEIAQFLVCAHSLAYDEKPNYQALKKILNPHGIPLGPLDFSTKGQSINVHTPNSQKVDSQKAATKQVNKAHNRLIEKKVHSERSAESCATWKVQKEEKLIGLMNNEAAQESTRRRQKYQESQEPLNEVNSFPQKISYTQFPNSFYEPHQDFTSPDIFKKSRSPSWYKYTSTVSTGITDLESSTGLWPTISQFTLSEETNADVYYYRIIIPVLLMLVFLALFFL
# Description: as §4, §5, §6
# [16] = target: RSK2(Kin.Dom.1-N-terminal) (Homo sapiens (Human), UniProt P51812)
# Chain of RSK2(Kin.Dom.1-N-terminal) (P51812 68-327): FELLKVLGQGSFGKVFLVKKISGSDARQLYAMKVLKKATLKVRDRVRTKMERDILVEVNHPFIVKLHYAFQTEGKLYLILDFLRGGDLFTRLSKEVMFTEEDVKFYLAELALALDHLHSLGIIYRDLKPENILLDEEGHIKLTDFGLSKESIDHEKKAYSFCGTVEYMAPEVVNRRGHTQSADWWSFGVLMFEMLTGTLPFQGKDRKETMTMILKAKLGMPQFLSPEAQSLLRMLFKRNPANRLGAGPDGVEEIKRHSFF
# Description: as §4, §5, §6
# [17] = target: LRRK2(G2019S) (Homo sapiens (Human), UniProt Q5S007, G2019S)
# Description: as §4, §5, §6
# [18] = target: BRAF (Homo sapiens (Human), UniProt P15056)
# Description: as §4, §5, §6
# [19] = target: RPS6KA4(Kin.Dom.1-N-terminal) (Homo sapiens (Human), UniProt O75676)
# Chain of RPS6KA4(Kin.Dom.1-N-terminal) (O75676 33-301): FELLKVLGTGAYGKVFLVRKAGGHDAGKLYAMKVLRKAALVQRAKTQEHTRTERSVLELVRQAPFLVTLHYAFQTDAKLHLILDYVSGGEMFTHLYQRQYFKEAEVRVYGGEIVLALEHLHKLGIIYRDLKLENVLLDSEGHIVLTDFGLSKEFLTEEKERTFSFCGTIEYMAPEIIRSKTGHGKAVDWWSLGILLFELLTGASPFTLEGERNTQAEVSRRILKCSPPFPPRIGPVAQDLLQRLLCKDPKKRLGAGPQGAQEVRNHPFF
# Description: as §4, §5, §6
# [20] = target: ASK1 (Homo sapiens (Human), UniProt Q99683)
# Chain of ASK1 (Q99683 whole entry): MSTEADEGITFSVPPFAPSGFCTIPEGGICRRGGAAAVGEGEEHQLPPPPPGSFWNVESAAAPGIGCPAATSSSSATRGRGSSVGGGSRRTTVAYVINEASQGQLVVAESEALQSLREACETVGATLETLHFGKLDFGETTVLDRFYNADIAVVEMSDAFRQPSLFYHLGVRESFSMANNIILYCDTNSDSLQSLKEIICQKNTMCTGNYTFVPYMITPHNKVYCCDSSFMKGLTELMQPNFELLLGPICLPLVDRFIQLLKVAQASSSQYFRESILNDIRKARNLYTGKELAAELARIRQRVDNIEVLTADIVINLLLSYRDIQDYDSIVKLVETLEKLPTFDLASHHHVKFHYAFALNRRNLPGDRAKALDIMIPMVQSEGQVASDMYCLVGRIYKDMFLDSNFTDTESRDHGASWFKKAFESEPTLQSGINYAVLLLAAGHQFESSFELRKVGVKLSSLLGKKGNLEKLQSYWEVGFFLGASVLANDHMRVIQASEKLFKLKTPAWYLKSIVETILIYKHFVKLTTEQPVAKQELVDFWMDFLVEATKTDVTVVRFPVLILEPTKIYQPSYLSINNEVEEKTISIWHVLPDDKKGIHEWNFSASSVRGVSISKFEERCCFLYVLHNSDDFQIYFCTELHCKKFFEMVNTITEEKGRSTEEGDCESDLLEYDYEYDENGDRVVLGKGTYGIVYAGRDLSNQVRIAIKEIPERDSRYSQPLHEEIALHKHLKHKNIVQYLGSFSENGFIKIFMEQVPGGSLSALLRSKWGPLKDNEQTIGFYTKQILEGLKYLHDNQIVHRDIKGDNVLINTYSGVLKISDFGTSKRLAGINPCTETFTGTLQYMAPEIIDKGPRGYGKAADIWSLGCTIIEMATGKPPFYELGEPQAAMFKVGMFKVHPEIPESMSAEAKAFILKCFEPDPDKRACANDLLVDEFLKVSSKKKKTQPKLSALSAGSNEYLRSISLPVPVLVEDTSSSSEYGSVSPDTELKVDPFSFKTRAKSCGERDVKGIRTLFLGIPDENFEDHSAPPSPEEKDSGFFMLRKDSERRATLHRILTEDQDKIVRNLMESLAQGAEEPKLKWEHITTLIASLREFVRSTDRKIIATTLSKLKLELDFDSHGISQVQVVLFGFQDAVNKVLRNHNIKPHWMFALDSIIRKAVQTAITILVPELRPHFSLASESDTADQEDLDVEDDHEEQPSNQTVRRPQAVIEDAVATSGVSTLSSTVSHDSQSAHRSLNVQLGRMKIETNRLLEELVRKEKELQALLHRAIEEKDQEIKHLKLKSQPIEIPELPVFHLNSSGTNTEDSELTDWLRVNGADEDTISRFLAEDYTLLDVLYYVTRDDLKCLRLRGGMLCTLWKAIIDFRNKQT
# Description: as §4, §5, §6
# [21] = target: HIPK3 (Homo sapiens (Human), UniProt Q9H422)
# Description: as §4, §5, §6
# [22] = target: RIOK3 (Homo sapiens (Human), UniProt O14730)
# Description: as §4, §5, §6
# [23] = target: CDKL1 (Homo sapiens (Human), UniProt Q00532)
# Chain of CDKL1 (Q00532 whole entry): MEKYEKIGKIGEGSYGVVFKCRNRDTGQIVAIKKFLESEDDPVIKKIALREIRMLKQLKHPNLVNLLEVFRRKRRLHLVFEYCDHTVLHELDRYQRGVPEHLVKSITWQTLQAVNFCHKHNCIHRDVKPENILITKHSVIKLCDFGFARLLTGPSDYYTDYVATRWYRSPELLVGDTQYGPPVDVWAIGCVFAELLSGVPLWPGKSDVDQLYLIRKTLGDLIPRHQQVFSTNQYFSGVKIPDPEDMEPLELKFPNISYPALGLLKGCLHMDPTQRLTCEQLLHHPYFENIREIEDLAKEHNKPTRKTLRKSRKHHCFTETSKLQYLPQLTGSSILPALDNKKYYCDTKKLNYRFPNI
# Description: as §4, §5, §6
# [24] = target: INSR (Homo sapiens (Human), UniProt P06213)
# Description: as §4, §5, §6
# [25] = target: PRKG1 (Homo sapiens (Human), UniProt Q13976)
# Description: as §4, §5, §6
# [26] = target: PRKD3 (Homo sapiens (Human), UniProt O94806)
# Description: as §4, §5, §6
# [27] = target: TRKB (Homo sapiens (Human), UniProt Q16620)
# Description: as §4, §5, §6
# [28] = target: SNARK (Homo sapiens (Human), UniProt Q9H093)
# Description: as §4, §5, §6
# [29] = target: MRCKB (Homo sapiens (Human), UniProt Q9Y5S2)
# Description: as §4, §5, §6
# [30] = target: CDC2L2 (Homo sapiens (Human), UniProt Q9UQ88)
# Description: as §4, §5, §6
# [31] = target: NEK1 (Homo sapiens (Human), UniProt Q96PY6)
# Description: as §4, §5, §6
# [32] = target: PYK2 (Homo sapiens (Human), UniProt Q14289)
# Description: as §4, §5, §6
# [33] = target: YANK3 (Homo sapiens (Human), UniProt Q86UX6)
# Description: as §4, §5, §6
# [34] = target: RSK2(Kin.Dom.2-C-terminal) (Homo sapiens (Human), UniProt P51812)
# Description: as §4, §5, §6
SMILES,remaining binding at 1 µM [1],remaining binding at 1 µM [2],remaining binding at 1 µM [3],remaining binding at 1 µM [4],remaining binding at 1 µM [5],remaining binding at 1 µM [6],remaining binding at 1 µM [7],remaining binding at 1 µM [8],remaining binding at 1 µM [9],remaining binding at 1 µM [10],remaining binding at 1 µM [11],remaining binding at 1 µM [12],remaining binding at 1 µM [13],remaining binding at 1 µM [14],remaining binding at 1 µM [15],remaining binding at 1 µM [16],remaining binding at 1 µM [17],remaining binding at 1 µM [18],remaining binding at 1 µM [19],remaining binding at 1 µM [20],further results
"CCNc1cc(Nc2ccc(C(=O)N3CCC(N4CCOCC4)CC3)cc2OC)nc2[nH]cc(C(F)(F)F)c12 [Example 57, (4-((4-(ethylamino)-3-(trifluoromethyl)-1H-pyrrolo[2,3-b]pyridin-6-yl)amino)-3-methoxyphenyl) (4-morpholinopiperidin-1-yl)methanone]",98%,91%,100%,98%,92%,91%,85%,23%,82%,95%,89%,78%,63%,73%,100%,96%,27%,98%,100%,77%,remaining binding at 1 µM [21]: 71%; remaining binding at 1 µM [22]: 96%; remaining binding at 1 µM [23]: 63%; remaining binding at 1 µM [24]: 48%; remaining binding at 1 µM [25]: 98%; remaining binding at 1 µM [26]: 78%; remaining binding at 1 µM [27]: 100%; remaining binding at 1 µM [28]: 100%; remaining binding at 1 µM [29]: 100%; remaining binding at 1 µM [30]: 88%; remaining binding at 1 µM [31]: 81%; remaining binding at 1 µM [32]: 76%; remaining binding at 1 µM [33]: 71%; remaining binding at 1 µM [34]: 100%
"CCNc1cc(Nc2ccc(C(=O)N3CCC(N4CCOCC4)CC3)cc2OC)nc2[nH]cc(C#N)c12 [Example 18, 4-(ethylamino)-6-((2-methoxy-4-(4-morpholinopiperidine-1-carbonyl)phenyl)amino)-1H-pyrrolo[2,3-b]pyridine-3-carbonitrile]",72%,100%,82%,98%,100%,100%,58%,12%,84%,69%,86%,78%,71%,92%,87%,78%,0.6%,83%,100%,79%,remaining binding at 1 µM [21]: 74%; remaining binding at 1 µM [22]: 98%; remaining binding at 1 µM [23]: 89%; remaining binding at 1 µM [24]: 36%; remaining binding at 1 µM [25]: 64%; remaining binding at 1 µM [26]: 9.6%; remaining binding at 1 µM [27]: 100%; remaining binding at 1 µM [28]: 57%; remaining binding at 1 µM [29]: 92%; remaining binding at 1 µM [30]: 86%; remaining binding at 1 µM [31]: 100%; remaining binding at 1 µM [32]: 60%; remaining binding at 1 µM [33]: 96%; remaining binding at 1 µM [34]: 100%
